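Growth conditions: 96-well plates. Treatment: test compound, 48 hours, 5 concentrations. Analysis: linear interpolation between bracketing concentrations; unreached endpoints set to highest concentration. The concentration for full growth arrest is given as TGI.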
Experiments:
Assay in all cases: NCI-60 cell line screen, 48 h
[1] = test system: RXF 393 renal
[2] = test system: A498 renal
[3] = test system: OVCAR-5 ovarian
[4] = test system: MOLT-4 leukemia
[5] = test system: SF-539 CNS
[6] = test system: HCC-2998 colon
[7] = test system: OVCAR-8 ovarian
[8] = test system: SNB-19 CNS
[9] = test system: SN12C renal
[10] = test system: NCI/ADR-RES ovarian

SMILES | TGI [1] [µM] | TGI [2] [µM] | TGI [3] [µM] | TGI [4] [µM] | TGI [5] [µM] | TGI [6] [µM] | TGI [7] [µM] | TGI [8] [µM] | TGI [9] [µM] | TGI [10] [µM]
C=C1C[C@@H](O)[C@@H](Br)C(C)(C)[C@@]12C=CC(=O)CC2 | > 100 | > 100 | 13.7 | > 100 | > 100 | > 100 | > 100 | > 100 | > 100 | > 100
CC(=O)C(C(=O)c1ccc(C)cc1)[C@H]1OC(C)(C)O[C@H]1[C@H]1COC(C)(C)O1 (stereo partly drawn) | 9.01 | 14.7 | 18.3 | > 50 | 6.3 | 14.2 | 12.6 | 17.3 | 6.39 | > 50
O=c1[nH]nc(-c2ccccc2)n1/N=C/c1ccccc1O | > 100 | > 100 | > 100 | > 100 | > 100 | > 100 | > 100 | > 100 | > 100 | > 100
FC(F)(F)c1ccc2c(c1)nc1n2C(c2c(Cl)cccc2Cl)SC1 (stereo not drawn) | 28.7 | 32.7 | 32.3 | > 100 | 43 | 40.1 | 74.7 | 48.7 | 32.2 | 58.9
CCOC(=O)c1sc2c(c1OC(=O)c1cc(OC)c(OC)c(OC)c1)c(=O)n(-c1ccccc1)c(=S)n2-c1ccccc1 | > 100 | > 100 | > 100 | > 100 | > 100 | > 100 | > 100 | > 100 | > 100 | > 100
COc1cc(/C=N/N=C(\N)NO)cc(OC)c1OC | > 100 | > 100 | > 100 | > 100 | 75.7 | > 100 | 37.9 | > 100 | > 100 | 36.3
O=C1/C(=C\c2ccc(Br)cc2)CCCc2ccccc21 | 43.3 | 45.6 | > 100 | 58.5 | 43.1 | 30.1 | 28.2 | 32.6 | 32.1 | 27.2
C[C@@H](C[C@H]1OC(C)(C)O[C@@H]1C(C)(C)O)[C@H]1CC=C2[C@]3(C)[C@H](O)C[C@H]4C(C)(C)[C@H](O)CC[C@]4(C)[C@H]3CC[C@]21C | 12.1 | 18.5 | 17.1 | 14.7 | 17.2 | 15.8 | 27.1 | 20.7 | 6.51 | 21.9
COc1ccc(-c2c(-c3ccc(OC)cc3)n3c(=O)n(C)c(=O)n23)cc1 | > 100 | 95.3 | – | > 100 | 72.9 | > 100 | 52.9 | 97.7 | > 100 | 89.9
COc1ccc(C2=[S+]C(c3ccccc3)(c3ccccc3)c3ccccc32)cc1 | 26 | 44.6 | 49.5 | 61 | 40.4 | > 100 | > 100 | > 100 | 37.1 | > 100
CC(C)=NOC(=O)CNC(=O)C(Cc1ccccc1)NC(=O)C(C)NC(=O)OC(C)(C)C (stereo not drawn) | > 100 | > 100 | > 100 | > 100 | > 100 | > 100 | > 100 | > 100 | > 100 | > 100
COc1ccc2cc(CNCCCCCCCCNCc3ccc4cc(OC)ccc4c3)ccc2c1 | > 100 | 9.68 | 10.1 | 7.5 | – | 31.8 | – | 7.83 | – | > 100
CC[C@@H](CCCCC1CC[C@H]2CC(=O)C[C@@H]12)OC (stereo partly drawn) | > 100 | > 100 | > 100 | > 100 | > 100 | > 100 | > 100 | > 100 | > 100 | > 100
CC12CC(=O)Nc3ccccc3N1C(c1ccccc1)=NO2 (stereo not drawn) | > 100 | > 100 | > 100 | > 100 | > 100 | > 100 | > 100 | > 100 | > 100 | > 100
Cc1nc2ccc(S(=O)(=O)NS(=O)(=O)c3ccc(-c4ccccc4)cc3)cc2c(=O)n1NS(=O)(=O)c1ccc(-c2ccccc2)cc1 | > 100 | > 100 | > 100 | > 100 | > 100 | > 100 | > 100 | > 100 | > 100 | > 100
CCCCc1ccc(-n2sc3ncc(-c4ccccc4)cc3c2=O)cc1 | > 100 | > 100 | > 100 | > 100 | – | > 100 | > 100 | > 100 | > 100 | > 100
COc1ccc(-c2c(-c3ccccc3)c(C)c3ccccn23)cc1 | – | > 100 | > 100 | > 100 | > 100 | > 100 | > 100 | > 100 | > 100 | > 100
O=c1oc(-c2ccc(O)cc2)cc2cc(O)ccc12 | 54.4 | 51.7 | > 100 | 69.2 | > 100 | 65.9 | > 100 | 93.6 | 65.1 | 47.9
O=C1NC(Nc2ccccc2)=N/C1=C\c1c(Cl)cccc1Cl | 45.3 | > 100 | > 100 | 64.1 | 53.2 | 58.5 | 65.1 | > 100 | 46.6 | > 100
COc1ccc2oc(S(=O)(=O)N3CC(CCl)c4ccc(N)cc43)cc2c1 (stereo not drawn) | – | > 52.1 | > 100 | > 54.5 | > 41.4 | 3.05 | > 28.3 | > 100 | > 100 | > 72
O=C(Nc1cccc(F)c1)c1cc2ccc(O)cc2oc1=Nc1cccc(F)c1 | – | > 100 | > 100 | 32.4 | > 100 | > 100 | 6.32 | > 100 | > 100 | 74.5
CO/N=C\c1ccc2c(c1)Sc1ccccc1O2 | > 100 | > 100 | > 100 | > 100 | > 100 | > 100 | > 100 | > 100 | > 100 | > 100

SMILES | TGI [1] [µM] | TGI [2] [µM] | TGI [3] [µM] | TGI [4] [µM] | TGI [5] [µM] | TGI [6] [µM] | TGI [7] [µM] | TGI [8] [µM] | TGI [9] [µM] | TGI [10] [µM]
N#[N+]c1c([O-])c2ccccc2c2ccccc12 | 45 | 46.9 | > 100 | > 100 | 91 | > 100 | > 100 | > 100 | > 100 | > 100
CC12CCCCC1=C(F)C(F)(F)S2 (stereo not drawn) | > 51.8 | > 100 | 97.7 | 36 | > 100 | > 86.5 | 77.3 | > 100 | > 75.2 | > 100
Oc1ccc(/C=C/c2cccc(/C=C/c3ccc(O)c(O)c3)n2)cc1O | – | 26.2 | 23.6 | 17.8 | 9.39 | 33.1 | 20.8 | 18.8 | 27.5 | 26.7
CC(C)(C)C(=O)Oc1ccc(/C=C/C(=O)c2ccc(OC(=O)C(C)(C)C)cc2)cc1 | 87.3 | > 100 | > 100 | 53.2 | > 100 | > 100 | > 100 | > 100 | > 100 | > 100
CCC(=O)N/S(=N/S(=O)(=O)c1ccccc1)C(Cl)(Cl)Cl (stereo not drawn) | > 100 | > 100 | > 100 | > 100 | > 100 | > 100 | > 100 | > 100 | > 100 | > 100
COC(=O)CCC1(CCC(=O)OC)CCCCCCC(CCC(=O)OC)(CCC(=O)OC)C(=O)C1=O | > 100 | > 100 | > 100 | – | > 100 | > 100 | > 100 | > 100 | > 100 | > 100
CCOP(=O)(OCC)/C(C#N)=C/c1ccccn1 | > 100 | > 100 | > 100 | > 100 | > 100 | > 100 | > 100 | > 100 | > 100 | > 100
N#Cc1c(Cl)c2cccnc2n2c1nc1ccccc12 | 3.44 | 31.1 | 44.8 | 6.15 | 5.4 | 10.7 | 3.77 | 38.5 | 3.7 | 6.55
O=c1[nH]nc(-c2ccccc2)n1/N=C/c1cccc([N+](=O)[O-])c1 | > 100 | > 100 | > 100 | > 100 | > 100 | > 100 | > 100 | > 100 | > 100 | > 100
Cn1c(=Nc2ccc(Cl)cc2)sc2ccccc21 | > 100 | > 100 | > 100 | > 100 | > 100 | 68.3 | > 100 | > 100 | > 100 | > 100
C[C@H]1C2Cc3cc(O)ccc3[C@@]1(C)CCN2CCc1ccc(N)cc1 | > 100 | > 100 | > 100 | > 100 | 31.3 | 26.4 | 45.8 | > 100 | > 100 | 63.2
O=C(c1ccccc1)N1C(=O)N(c2ccccc2)C(=Nc2ccccc2)C1=Nc1ccccc1 | > 100 | > 100 | > 100 | > 100 | > 100 | > 100 | > 100 | > 100 | > 100 | > 100
COC(=O)c1c(CC(Cc2ccc3c(c2)CCCC3)C(=O)O)ccc2c1CCCC2 (stereo not drawn) | > 100 | 76.3 | > 100 | > 100 | 44.9 | 70.2 | > 100 | > 100 | > 100 | 34.4
CCOC(=O)C(=CNc1ccc(N(C2=NCC(C)S2)c2ccc(F)c(Cl)c2)cc1)C(=O)OCC (stereo not drawn) | 21.3 | 41.1 | 39 | 41.6 | 46.4 | 32 | 37.3 | 54.5 | 36.2 | 33.7
CC(=O)O[C@H]1CC[C@@]2(C)C(=CC[C@@H]3[C@@H]2CC[C@]2(C)c4c(n[nH]c4C)C[C@@H]32)C1 | 23.9 | 41 | 31.1 | 53.4 | – | 34.1 | 92.9 | 42.3 | 45.5 | 85.1
O=C(O)c1nc2ccc(C(F)(F)F)cc2nc1Nc1ccc(Cl)c(Cl)c1 | 28.9 | 27.4 | 28.9 | 17.3 | – | 17.6 | 17.6 | 10.9 | 22.1 | 19.7
Cc1ccc(S(=O)C[C@](NC(=O)OCc2ccccc2)(Sc2ccccc2)C(F)F)cc1 (stereo partly drawn) | 79.5 | 29.7 | 63.9 | 22.2 | – | 35.9 | 48.5 | 31.3 | – | 54.6
Cc1cccc2oc3c(c(=O)c12)CC(O)C(C)(C)O3 (stereo not drawn) | > 100 | > 100 | > 100 | 83.2 | > 100 | > 100 | – | > 100 | > 100 | > 100
Cc1ccc(O)c(C2=CC3=NNC(=O)C3C(c3cccc(Cl)c3)C2)c1 (stereo not drawn) | 9.62 | > 100 | > 100 | > 100 | > 100 | 44.5 | 77.3 | > 100 | > 100 | > 100
CC1(C)CO[P@@](=S)(c2ccccn2)O[C@@H]1c1ccccc1 | > 100 | > 100 | > 100 | > 100 | – | > 100 | > 100 | > 100 | > 100 | > 100
CC(C)(C)OC(=O)N1NC(c2ccccc2)CC1c1ccccc1 (stereo not drawn) | 58.4 | 74.4 | > 100 | > 100 | > 100 | > 100 | > 100 | – | > 100 | 47.9
